Test results from PubChem BioAssay AID2060513 (Molecular Pharmacology Branch, DTP, NCI, 2025).

System: 299254-011-R-J1-PDC complex spheroids viability
Test: Anticancer human tumor 299254-011-R-J1-PDC patient-derived melanoma cell line growth inhibition [GQUAD]
Details: for IC50: curve of first compound; for viability, T/C: stronger effect = lower value; active means viability on the fitted dose curve at most 10% of control; inactive means the rest
Method in brief: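 Multi-cell-type spheroids of tumor cells with HUVEC and mesenchymal stem cells, treated with drug combinations. Concentrations descend in half-log steps from near clinical Cmax, or from 10 microM where Cmax is unknown; viability read-out.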

[1] = second compound 0.0316 µM, first compound 0.0316 µM
[2] = second compound 0.0316 µM, first compound 0.1 µM
[3] = second compound 0.0316 µM, first compound 0.316 µM
[4] = second compound 0.0316 µM, first compound 1 µM
[5] = second compound 0.0316 µM, first compound 3.16 µM
[6] = second compound 0.0316 µM, first compound 10 µM
[7] = second compound 0.1 µM, first compound 0.0316 µM
[8] = second compound 0.1 µM, first compound 0.1 µM
[9] = second compound 0.1 µM, first compound 0.316 µM
[10] = second compound 0.1 µM, first compound 1 µM
[11] = second compound 0.1 µM, first compound 3.16 µM
[12] = second compound 0.1 µM, first compound 10 µM
[13] = second compound 0.316 µM, first compound 0.0316 µM
[14] = second compound 0.316 µM, first compound 0.1 µM
[15] = second compound 0.316 µM, first compound 0.316 µM
[16] = second compound 0.316 µM, first compound 1 µM
[17] = second compound 0.316 µM, first compound 3.16 µM
[18] = second compound 0.316 µM, first compound 10 µM
[19] = second compound 1 µM, first compound 0.0316 µM
[20] = second compound 1 µM, first compound 0.1 µM
[21] = second compound 1 µM, first compound 0.316 µM
[22] = second compound 1 µM, first compound 1 µM
[23] = second compound 1 µM, first compound 3.16 µM
[24] = second compound 1 µM, first compound 10 µM
[25] = second compound 3.16 µM, first compound 0.0316 µM
[26] = second compound 3.16 µM, first compound 0.1 µM
[27] = second compound 3.16 µM, first compound 0.316 µM
[28] = second compound 3.16 µM, first compound 1 µM
[29] = second compound 3.16 µM, first compound 3.16 µM
[30] = second compound 3.16 µM, first compound 10 µM
[31] = second compound 10 µM, first compound 0.0316 µM
[32] = second compound 10 µM, first compound 0.1 µM
[33] = second compound 10 µM, first compound 0.316 µM
[34] = second compound 10 µM, first compound 1 µM
[35] = second compound 10 µM, first compound 3.16 µM
[36] = second compound 10 µM, first compound 10 µM
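Further: spheroids exposed to the agents for seven days before readout.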
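Wherever viability, T/C is given: percent viability relative to DMSO vehicle control wells = 100%.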

O=c1[nH]cc(F)c(=O)[nH]1 + Cc1[nH]c2ccc(F)cc2c1-c1nc2c3cccnc3c3ncccc3c2[nH]1
inactive: viability, T/C [1] 131% | viability, T/C [2] 114% | viability, T/C [3] 113% | viability, T/C [4] 121% | viability, T/C [5] 116% | viability, T/C [6] 125% | viability, T/C [7] 120% | viability, T/C [8] 105% | viability, T/C [9] 110% | viability, T/C [10] 123% | viability, T/C [11] 98.3% | viability, T/C [12] 123% | viability, T/C [13] 104% | viability, T/C [14] 99.6% | viability, T/C [15] 119% | viability, T/C [16] 100% | viability, T/C [17] 97.5% | viability, T/C [18] 97.8% | viability, T/C [19] 88.3% | viability, T/C [20] 98.6% | viability, T/C [21] 106% | viability, T/C [22] 108% | viability, T/C [23] 116% | viability, T/C [24] 106% | viability, T/C [25] 99.3% | viability, T/C [26] 107% | viability, T/C [27] 96% | viability, T/C [28] 113% | viability, T/C [29] 90.4% | viability, T/C [30] 107% | viability, T/C [31] 96.4% | viability, T/C [32] 96.5% | viability, T/C [33] 92.1% | viability, T/C [34] 102% | viability, T/C [35] 98.9% | viability, T/C [36] 88%
> 10 µM: IC50 (second compound 0.0316 µM) | IC50 (second compound 0.1 µM) | IC50 (second compound 0.316 µM) | IC50 (second compound 1 µM) | IC50 (second compound 3.16 µM) | IC50 (second compound 10 µM)

O=C(NO)c1cnc(N2CCN(S(=O)(=O)c3ccc4ccccc4c3)CC2)nc1 + Cc1cnc(CNC(=O)c2c(=O)c3ccc(N4CCCN(C)CC4)nc3n3c2sc2ccccc23)cn1
0.201 µM: IC50 (second compound 0.0316 µM)
0.21 µM: IC50 (second compound 1 µM)
active: viability, T/C [4] 0.93% | viability, T/C [5] 0.18% | viability, T/C [6] 0.19% | viability, T/C [10] 1.22% | viability, T/C [11] 0.15% | viability, T/C [12] 0.24% | viability, T/C [16] 0.56% | viability, T/C [17] 0.14% | viability, T/C [18] 0.21% | viability, T/C [22] 1.83% | viability, T/C [23] 0.13% | viability, T/C [24] 0.18% | viability, T/C [28] 0.19% | viability, T/C [29] 0.15% | viability, T/C [30] 0.16% | viability, T/C [33] 0.31% | viability, T/C [34] 0.22% | viability, T/C [35] 0.22% | viability, T/C [36] 0.23%
< 0.0316 µM: IC50 (second compound 10 µM)
0.212 µM: IC50 (second compound 3.16 µM)
0.227 µM: IC50 (second compound 0.1 µM)
0.228 µM: IC50 (second compound 0.316 µM)
inactive: viability, T/C [1] 112% | viability, T/C [2] 94.8% | viability, T/C [3] 20.9% | viability, T/C [7] 107% | viability, T/C [8] 97.8% | viability, T/C [9] 30.7% | viability, T/C [13] 102% | viability, T/C [14] 109% | viability, T/C [15] 27.9% | viability, T/C [19] 93.6% | viability, T/C [20] 83% | viability, T/C [21] 31.8% | viability, T/C [25] 74.8% | viability, T/C [26] 91.3% | viability, T/C [27] 32.3% | viability, T/C [31] 45.8% | viability, T/C [32] 11.5%

COc1ncnc(C2CC2)c1-c1ncc2cnn(Cc3ccc(-c4nc(C(F)(F)F)cn4C(C)C)cc3)c2n1 + Cc1cnc(CNC(=O)c2c(=O)c3ccc(N4CCCN(C)CC4)nc3n3c2sc2ccccc23)cn1
> 10 µM: IC50 (second compound 0.0316 µM) | IC50 (second compound 0.1 µM) | IC50 (second compound 0.316 µM) | IC50 (second compound 1 µM) | IC50 (second compound 3.16 µM)
active: viability, T/C [36] 0.43%
3.44 µM: IC50 (second compound 10 µM)
inactive: viability, T/C [1] 92.3% | viability, T/C [2] 98.2% | viability, T/C [3] 84.8% | viability, T/C [4] 88.6% | viability, T/C [5] 110% | viability, T/C [6] 126% | viability, T/C [7] 113% | viability, T/C [8] 97.9% | viability, T/C [9] 81.5% | viability, T/C [10] 97.8% | viability, T/C [11] 91.9% | viability, T/C [12] 108% | viability, T/C [13] 87.3% | viability, T/C [14] 88.9% | viability, T/C [15] 120% | viability, T/C [16] 101% | viability, T/C [17] 93.2% | viability, T/C [18] 97.8% | viability, T/C [19] 68.7% | viability, T/C [20] 102% | viability, T/C [21] 90.1% | viability, T/C [22] 88.1% | viability, T/C [23] 102% | viability, T/C [24] 76.8% | viability, T/C [25] 87.4% | viability, T/C [26] 69.8% | viability, T/C [27] 76.4% | viability, T/C [28] 70.9% | viability, T/C [29] 77.3% | viability, T/C [30] 79% | viability, T/C [31] 38.5% | viability, T/C [32] 24.7% | viability, T/C [33] 68% | viability, T/C [34] 77.7% | viability, T/C [35] 63.6%

CC1COCCN1c1cc(C2(S(C)(=N)=O)CC2)nc(-c2ccnc3[nH]ccc23)n1 (stereo not drawn) + Cc1[nH]c2ccc(F)cc2c1-c1nc2c3cccnc3c3ncccc3c2[nH]1
4.53 µM: IC50 (second compound 1 µM)
inactive: viability, T/C [1] 105% | viability, T/C [2] 86.6% | viability, T/C [3] 110% | viability, T/C [4] 67.8% | viability, T/C [5] 53.6% | viability, T/C [6] 31.8% | viability, T/C [7] 85% | viability, T/C [8] 95.9% | viability, T/C [9] 100% | viability, T/C [10] 87.4% | viability, T/C [11] 64% | viability, T/C [12] 35.8% | viability, T/C [13] 78.7% | viability, T/C [14] 96.4% | viability, T/C [15] 114% | viability, T/C [16] 87.9% | viability, T/C [17] 64.2% | viability, T/C [18] 24% | viability, T/C [19] 91% | viability, T/C [20] 90.3% | viability, T/C [21] 96.1% | viability, T/C [22] 111% | viability, T/C [23] 59.4% | viability, T/C [24] 29.3% | viability, T/C [25] 108% | viability, T/C [26] 99.2% | viability, T/C [27] 97.7% | viability, T/C [28] 97.1% | viability, T/C [29] 50% | viability, T/C [30] 18% | viability, T/C [31] 127% | viability, T/C [32] 83% | viability, T/C [33] 97.5% | viability, T/C [34] 92% | viability, T/C [35] 38.3% | viability, T/C [36] 14.1%
2.91 µM: IC50 (second compound 0.0316 µM)
2.46 µM: IC50 (second compound 10 µM)
4.71 µM: IC50 (second compound 0.316 µM)
5.58 µM: IC50 (second compound 0.1 µM)
3.17 µM: IC50 (second compound 3.16 µM)
